Experimental data as given in US20250011298A1, “CRYSTALLINE FORMS OF A CDK9 INHIBITOR AND USES THEREOF” (PRELUDE THERAPEUTICS INCORPORATED, priority 2021, published 2025).

Experiment: Thermogravimetric analysis (TGA) of crystalline forms
Assay type: physicochemical
Conditions: TGA thermogram; ramp from 25° C. to 600° C. at 20° C./min, nitrogen purge
Experimental: Crystalline forms of the compound of Formula I were analyzed using a TA Instruments Thermogravimetric Analyzer, TGA Q500 with autosampler. The general experimental conditions for TGA were ramp from 25° C. 600° C. at 20° C./min; nitrogen purge, gas flow at 25 mL/min; platinum sample pan.

| TGA: degradation occurring after | Compound |
| --- | --- |
| > 176 °C | Cc1cnc(NC(=O)[C@H]2CCC[C@@H](NC(=O)CC#N)C2)cc1-c1cc(F)c2ncn(C(C)C)c2c1 [Form I] |
| > 176 °C | Cc1cnc(NC(=O)[C@H]2CCC[C@@H](NC(=O)CC#N)C2)cc1-c1cc(F)c2ncn(C(C)C)c2c1 [Form II] |
